According to PubChem BioAssay (NCI):
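Growth conditions: 96-well plates. Treatment: test compound, 48 hours, 5 concentrations. Analysis: linear interpolation between bracketing concentrations; unreached endpoints set to highest concentration. TGI denotes the concentration required for complete inhibition of growth.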

Key:
Experiment in all cases: NCI anticancer screen, dose series, 48 h
NCI/ADR-RES ovarian = system: NCI/ADR-RES ovarian
ACHN renal = system: ACHN renal
A498 renal = system: A498 renal
HL-60(TB) leukemia = system: HL-60(TB) leukemia
BT-549 breast = system: BT-549 breast
NCI-H460 lung = system: NCI-H460 lung
MCF7 breast = system: MCF7 breast
SR leukemia = system: SR leukemia
SN12C renal = system: SN12C renal
HOP-92 NSCLC = system: HOP-92 NSCLC
SNB-19 CNS = system: SNB-19 CNS
786-0 renal = system: 786-0 renal
EKVX NSCLC = system: EKVX NSCLC
SK-MEL-28 melanoma = system: SK-MEL-28 melanoma
HS 578T breast = system: HS 578T breast
U251 CNS = system: U251 CNS
NCI-H23 lung = system: NCI-H23 lung
A549 NSCLC = system: A549 NSCLC
RXF 393 renal = system: RXF 393 renal
HCT-116 colon = system: HCT-116 colon
OVCAR-3 ovarian = system: OVCAR-3 ovarian
UO-31 renal = system: UO-31 renal
SF-268 CNS = system: SF-268 CNS
PC-3 prostate = system: PC-3 prostate
MDA-MB-435 = system: MDA-MB-435
HOP-62 NSCLC = system: HOP-62 NSCLC
SK-MEL-2 melanoma = system: SK-MEL-2 melanoma
OVCAR-5 ovarian = system: OVCAR-5 ovarian
TK-10 renal = system: TK-10 renal
HT29 colon = system: HT29 colon
M14 melanoma = system: M14 melanoma
T-47D breast = system: T-47D breast
IGROV1 ovarian = system: IGROV1 ovarian
KM12 colon = system: KM12 colon
LOX IMVI melanoma = system: LOX IMVI melanoma
MDA-N = system: MDA-N
SF-539 CNS = system: SF-539 CNS
NCI-H226 lung = system: NCI-H226 lung
SF-295 CNS = system: SF-295 CNS
SK-OV-3 ovarian = system: SK-OV-3 ovarian
MOLT-4 leukemia = system: MOLT-4 leukemia
SW-620 colon = system: SW-620 colon
COLO 205 colon = system: COLO 205 colon
K-562 leukemia = system: K-562 leukemia
SK-MEL-5 melanoma = system: SK-MEL-5 melanoma
OVCAR-8 ovarian = system: OVCAR-8 ovarian
RPMI-8226 leukemia = system: RPMI-8226 leukemia
HCC-2998 colon = system: HCC-2998 colon
CCRF-CEM leukemia = system: CCRF-CEM leukemia
HCT-15 colon = system: HCT-15 colon
DU-145 prostate = system: DU-145 prostate
UACC-62 melanoma = system: UACC-62 melanoma
SNB-75 CNS = system: SNB-75 CNS
OVCAR-4 ovarian = system: OVCAR-4 ovarian
UACC-257 melanoma = system: UACC-257 melanoma
MDA-MB-231 breast = system: MDA-MB-231 breast
MALME-3M melanoma = system: MALME-3M melanoma

Cn1c(-c2ccccc2)cc(-c2ccc3c(c2)OCO3)c1-c1cccs1
TGI (NCI/ADR-RES ovarian): > 100 µM | TGI (ACHN renal): > 100 µM | TGI (A498 renal): > 100 µM | TGI (HL-60(TB) leukemia): > 100 µM | TGI (BT-549 breast): > 100 µM | TGI (NCI-H460 lung): > 100 µM | TGI (MCF7 breast): > 100 µM | TGI (SR leukemia): > 100 µM | TGI (SN12C renal): > 100 µM | TGI (HOP-92 NSCLC): > 100 µM | TGI (SNB-19 CNS): > 100 µM | TGI (786-0 renal): > 100 µM | TGI (EKVX NSCLC): > 100 µM | TGI (SK-MEL-28 melanoma): > 100 µM | TGI (HS 578T breast): > 100 µM | TGI (U251 CNS): > 100 µM | TGI (NCI-H23 lung): > 100 µM | TGI (A549 NSCLC): > 100 µM | TGI (RXF 393 renal): > 100 µM | TGI (HCT-116 colon): > 100 µM | TGI (OVCAR-3 ovarian): > 100 µM | TGI (UO-31 renal): > 100 µM | TGI (SF-268 CNS): > 100 µM | TGI (PC-3 prostate): > 100 µM | TGI (MDA-MB-435): > 100 µM | TGI (HOP-62 NSCLC): > 100 µM | TGI (SK-MEL-2 melanoma): > 100 µM | TGI (OVCAR-5 ovarian): > 100 µM | TGI (TK-10 renal): > 100 µM | TGI (HT29 colon): > 100 µM | TGI (M14 melanoma): > 100 µM | TGI (T-47D breast): > 100 µM | TGI (IGROV1 ovarian): > 100 µM | TGI (KM12 colon): > 100 µM | TGI (LOX IMVI melanoma): > 100 µM | TGI (MDA-N): > 100 µM | TGI (SF-539 CNS): > 100 µM | TGI (NCI-H226 lung): > 100 µM | TGI (SF-295 CNS): > 100 µM | TGI (SK-OV-3 ovarian): > 100 µM | TGI (MOLT-4 leukemia): > 100 µM | TGI (SW-620 colon): > 100 µM | TGI (COLO 205 colon): > 100 µM | TGI (K-562 leukemia): > 100 µM | TGI (SK-MEL-5 melanoma): > 100 µM | TGI (OVCAR-8 ovarian): > 100 µM | TGI (RPMI-8226 leukemia): > 100 µM | TGI (HCC-2998 colon): > 100 µM | TGI (CCRF-CEM leukemia): > 100 µM | TGI (HCT-15 colon): > 100 µM | TGI (DU-145 prostate): > 100 µM | TGI (UACC-62 melanoma): > 100 µM | TGI (SNB-75 CNS): > 100 µM | TGI (OVCAR-4 ovarian): > 100 µM | TGI (UACC-257 melanoma): > 100 µM

O=C(ON=c1c2ccccc2ccc2ccccc12)c1cc([N+](=O)[O-])cc([N+](=O)[O-])c1
TGI (NCI/ADR-RES ovarian): > 100 µM | TGI (ACHN renal): > 100 µM | TGI (HL-60(TB) leukemia): > 100 µM | TGI (BT-549 breast): > 100 µM | TGI (MDA-MB-231 breast): > 100 µM | TGI (NCI-H460 lung): > 100 µM | TGI (MCF7 breast): > 100 µM | TGI (SR leukemia): > 100 µM | TGI (SN12C renal): > 100 µM | TGI (HOP-92 NSCLC): > 100 µM | TGI (SNB-19 CNS): > 100 µM | TGI (786-0 renal): > 100 µM | TGI (EKVX NSCLC): > 100 µM | TGI (SK-MEL-28 melanoma): > 100 µM | TGI (HS 578T breast): > 100 µM | TGI (U251 CNS): > 100 µM | TGI (NCI-H23 lung): > 100 µM | TGI (A549 NSCLC): > 100 µM | TGI (MALME-3M melanoma): 77.4 µM | TGI (RXF 393 renal): > 100 µM | TGI (HCT-116 colon): > 100 µM | TGI (OVCAR-3 ovarian): > 100 µM | TGI (UO-31 renal): > 100 µM | TGI (SF-268 CNS): > 100 µM | TGI (PC-3 prostate): > 100 µM | TGI (MDA-MB-435): > 100 µM | TGI (HOP-62 NSCLC): > 100 µM | TGI (SK-MEL-2 melanoma): > 100 µM | TGI (OVCAR-5 ovarian): > 100 µM | TGI (TK-10 renal): > 100 µM | TGI (HT29 colon): > 100 µM | TGI (M14 melanoma): > 100 µM | TGI (IGROV1 ovarian): > 100 µM | TGI (KM12 colon): > 100 µM | TGI (LOX IMVI melanoma): > 100 µM | TGI (MDA-N): > 100 µM | TGI (SF-539 CNS): > 100 µM | TGI (NCI-H226 lung): > 100 µM | TGI (SF-295 CNS): > 100 µM | TGI (SK-OV-3 ovarian): > 100 µM | TGI (MOLT-4 leukemia): > 100 µM | TGI (SW-620 colon): > 100 µM | TGI (COLO 205 colon): > 100 µM | TGI (K-562 leukemia): > 100 µM | TGI (SK-MEL-5 melanoma): > 100 µM | TGI (OVCAR-8 ovarian): > 100 µM | TGI (RPMI-8226 leukemia): > 100 µM | TGI (HCC-2998 colon): > 100 µM | TGI (CCRF-CEM leukemia): 94 µM | TGI (HCT-15 colon): > 100 µM | TGI (DU-145 prostate): > 100 µM | TGI (UACC-62 melanoma): > 100 µM | TGI (SNB-75 CNS): > 100 µM | TGI (OVCAR-4 ovarian): > 100 µM | TGI (UACC-257 melanoma): > 100 µM
